According to publication PMC6469979, “A Dopamine-Responsive Signal Transduction Controls Transcription of Salmonella enterica Serovar Typhimurium Virulence Genes” (mBio, 2019):

Target: EmrR-His6 (EmrR) (Salmonella enterica, UniProt Q7CPY9)
Assay: EMSA, release of EmrR-His6 from […]-labelled pagC-pagD promoter DNA
Details: dopamine 1, 10, 100 uM; 50 pmol EmrR-His6 in 20 ul; room temperature, 30 min; DNA-binding inhibition

Chain of EmrR-His6 (EmrR) (Q7CPY9 entry or part of it): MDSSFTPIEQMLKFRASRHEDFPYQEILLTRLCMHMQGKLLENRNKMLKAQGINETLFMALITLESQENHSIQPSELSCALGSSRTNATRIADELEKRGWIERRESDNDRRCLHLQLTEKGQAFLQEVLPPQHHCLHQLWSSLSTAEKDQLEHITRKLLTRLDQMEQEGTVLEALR

NCCc1ccc(O)c(O)c1 [dopamine]
EMSA, release of EmrR-His6 from 32P-labelled pagC-pagD promoter DNA: dopamine alone was sufficient to reduce the affinity of a pure EmrR protein
